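Grown in 96-well plates, cells were treated for 48 hours with each compound at five concentrations. Insufficient inhibition: endpoint recorded as highest concentration tested. Here, GI50 denotes the concentration required for 50% inhibition of growth.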 Activity calls are given as the source filed them. Rule as the data show it: active = GI50 up to about 1.1 µM and inactive = higher.
Legend:
Experiment in all cases: NCI anticancer screen, dose series, 48 h
HT-29 = test system: HT-29
A498 = test system: A498
SK-MEL-5 = test system: SK-MEL-5
RXF 393 = test system: RXF 393
K562 = test system: K562
A549 = test system: A549
HCT-116 = test system: HCT-116
SF-268 = test system: SF-268
SF-295 = test system: SF-295
SNB-19 = test system: SNB-19
EKVX = test system: EKVX
HOP-92 = test system: HOP-92
NCI/ADR-RES = test system: NCI/ADR-RES
SR = test system: SR
SK-MEL-2 = test system: SK-MEL-2
COLO 205 = test system: COLO 205
SW-620 = test system: SW-620
OVCAR-3 = test system: OVCAR-3
T47D = test system: T47D
RPMI-8226 = test system: RPMI-8226

Measured: GI50

CCCCCCCC/C=C\CCCCCCCC(=O)OC[C@]1(CO)CCC(=O)O1
inactive: HT-29 > 100 µM | A498 > 100 µM | SK-MEL-5 > 100 µM | RXF 393 > 100 µM | K562 > 100 µM | A549 > 100 µM | HCT-116 > 100 µM | SF-268 > 100 µM | SF-295 > 100 µM | SNB-19 > 100 µM | EKVX > 100 µM | HOP-92 > 100 µM | NCI/ADR-RES > 100 µM | SR > 100 µM | SK-MEL-2 > 100 µM | COLO 205 > 100 µM | SW-620 > 100 µM | OVCAR-3 > 100 µM | T47D > 100 µM

Cc1oc2c(c1C)S(=O)(=O)C(C#N)=C(c1ccccc1)N2
inactive: HT-29 > 100 µM | A498 > 100 µM | RPMI-8226 > 100 µM | SK-MEL-5 > 100 µM | K562 > 100 µM | A549 > 100 µM | SF-268 > 100 µM | SF-295 > 100 µM | SNB-19 > 100 µM | EKVX > 100 µM | HOP-92 > 100 µM | NCI/ADR-RES > 100 µM | SR > 100 µM | SK-MEL-2 > 100 µM | COLO 205 > 100 µM | SW-620 > 100 µM | OVCAR-3 > 100 µM | T47D > 100 µM

CCOC(=O)CC1(O)CCCCC1(Sc1ccc(C)cc1)Sc1ccc(C)cc1 (stereo not drawn)
inactive: HT-29 32.2 µM | A498 > 100 µM | SK-MEL-5 29.9 µM | RXF 393 42.4 µM | K562 41.5 µM | A549 33.8 µM | HCT-116 33.9 µM | SF-268 31.7 µM | SF-295 41 µM | SNB-19 81.1 µM | EKVX 26.9 µM | HOP-92 29.6 µM | NCI/ADR-RES 65.9 µM | SR 31.3 µM | SK-MEL-2 20.5 µM | COLO 205 42.2 µM | SW-620 62.4 µM | OVCAR-3 55.5 µM | T47D 19.4 µM

Cc1cc(S(=O)(=O)NC2=NCCCN2)c(S)cc1Cl
inactive: HT-29 20.8 µM | A498 > 100 µM | SK-MEL-5 17.9 µM | RXF 393 66.2 µM | K562 22.8 µM | A549 21.6 µM | HCT-116 31.8 µM | SF-268 87.1 µM | SNB-19 40.6 µM | EKVX 38.9 µM | NCI/ADR-RES > 100 µM | SR 21.2 µM | SK-MEL-2 12.4 µM | COLO 205 40.4 µM | SW-620 19.9 µM | OVCAR-3 31.6 µM | T47D 25.2 µM

Source: ChEMBL document CHEMBL1201862, “PubChem BioAssay data set” (2004)
